Source: patent US20250115665A1, “BISPECIFIC ANTIBODY AGAINST CD3 AND CD20 IN COMBINATION THERAPY FOR TREATING DIFFUSE LARGE B-CELL LYMPHOMA” (GENMAB A/S, priority 2022, published 2025)

Experiments:
T cells = assay: T-cell activation with immobilized anti-CD3 in the presence or absence of lenalidomide; type: cell-based; details: lenalidomide 5 or 50 μM, CD3 crosslinking by immobilized anti-CD3, 3 days; compared to no lenalidomide
Experimental: T cells were pre-incubated with assay medium or lenalidomide in the absence or presence of CD3 crosslinking by immobilized anti-CD3 for 3 days (as indicated on the x-axes), after which upregulation of CD69, CD25, PD-1 and LAMP-1 on CD4+ and CD8+ T cells was determined by flow cytometry. Data shown are geomean fluorescence intensities (FI) for four donors (each circle represents one condition for one donor). Pre-incubation conditions are shown on the x-axis.
(§1) Briefly, T cells were activated with immobilized anti-CD3 in the presence (5 or 50 μM) or absence of lenalidomide for 3 days. […] T cells that were activated in the presence or absence of lenalidomide were subsequently tested for their cytotoxic capacity in response to epcoritamab.

[1] = tested on: CD20-expressing Daudi cells; assay: DuoBody-CD3xCD20-induced T-cell-mediated cytotoxicity assay with lenalidomide pre-treated T cells; type: cell-based; details: T cells pre-treated with lenalidomide and anti-CD3; Daudi target cells, E:T ratio 2:1
Experimental: T cells were incubated with (5 or 50 μM) or without lenalidomide in the absence or presence of immobilized anti-CD3 for 3 days. […] Data shown are average percentages cytotoxicity±SD of duplicates, normalized to medium control (no antibody, no lenalidomide).
as §1

[2] = tested on: highly refractory large B-cell lymphoma; details: monotherapy, n=157; cited from earlier work

| Compound | T-cell activation (upregulation of CD69, CD25 on the T cell surface, release of granzyme B and IFNγ) (T cells) | cytotoxic activity at lower antibody concentrations [1] | maximum percent cytotoxicity [1] | complete response (CR) rate [2] [%] | median duration of response (DOR) [2] [months] | overall response rate (ORR) [2] [%] | safety profile [2] |
| --- | --- | --- | --- | --- | --- | --- | --- |
| Nc1cccc2c1CN(C1CCC(=O)NC1=O)C2=O (stereo not shown) [lenalidomide, 3-(4-Amino-1-oxo-1,3-dihydro-2H-isoindol-2-yl) piperidine-2,6-dione] | increased T-cell activation | – | – | – | – | – | – |
| epcoritamab: IgG1 bispecific CD3×CD20 antibody, heavy/light chains SEQ ID NOs: 24, 25 and 26, 27; CAS 2134641-34-0 | – | higher activity at lower epcoritamab concentrations | Higher maximum percent cytotoxicity | 39 | 12 | 63 | manageable safety profile |
